Test results published in patent US20230183323A1 (BROWN UNIVERSITY, priority 2020, published 2023).
Structures can show the parent of a compound that is named as a salt.

Key:
CDK3 = CDK3 (Homo sapiens, UniProt Q00526); conditions: cited from earlier work
CDK2 = CDK2 (Homo sapiens, UniProt P24941); conditions: cited from earlier work
CDK6 = CDK6 (Homo sapiens, UniProt Q00534); design: key to the marks not given beside the values; conditions: cited from earlier work
CDK7 = CDK7 (Homo sapiens, UniProt P50613); design: key: + is used to indicate the potency of the inhibitor; ++++ > +++ > ++ > +; + is used to indicate the potency of the inhibitor; ++++ > +++ > ++ > +; + is used to indicate the potency of the inhibitor; ++++ > +++ > ++ > +; + is used to indicate the potency of the inhibitor; ++++ > +++ > ++ > +; ◯ refers to compounds with inhibitory effects on the related isoform, but without specific value; conditions: cited from earlier work
CDK7, sequence (P51946 whole entry, canonical isoform): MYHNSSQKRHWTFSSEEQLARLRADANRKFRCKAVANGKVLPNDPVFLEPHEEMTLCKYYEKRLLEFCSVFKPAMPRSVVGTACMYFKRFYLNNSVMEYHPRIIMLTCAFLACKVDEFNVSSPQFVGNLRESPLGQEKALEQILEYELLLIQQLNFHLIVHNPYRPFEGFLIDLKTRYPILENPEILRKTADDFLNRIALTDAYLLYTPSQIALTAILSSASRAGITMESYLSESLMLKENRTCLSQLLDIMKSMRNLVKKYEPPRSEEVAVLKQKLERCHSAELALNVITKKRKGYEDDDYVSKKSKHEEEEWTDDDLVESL
CDK7, sequence (P50613 whole entry, canonical isoform): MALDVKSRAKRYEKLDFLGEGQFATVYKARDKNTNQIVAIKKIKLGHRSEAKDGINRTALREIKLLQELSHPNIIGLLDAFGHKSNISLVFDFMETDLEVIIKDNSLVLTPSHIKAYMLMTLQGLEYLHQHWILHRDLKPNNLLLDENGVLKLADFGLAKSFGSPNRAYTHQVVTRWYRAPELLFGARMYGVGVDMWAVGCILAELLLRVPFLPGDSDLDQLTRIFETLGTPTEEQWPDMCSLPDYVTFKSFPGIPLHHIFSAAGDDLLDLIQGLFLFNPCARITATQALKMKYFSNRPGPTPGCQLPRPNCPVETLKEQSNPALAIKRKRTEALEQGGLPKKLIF
CDK7, sequence (P51948 whole entry, further chain, canonical isoform): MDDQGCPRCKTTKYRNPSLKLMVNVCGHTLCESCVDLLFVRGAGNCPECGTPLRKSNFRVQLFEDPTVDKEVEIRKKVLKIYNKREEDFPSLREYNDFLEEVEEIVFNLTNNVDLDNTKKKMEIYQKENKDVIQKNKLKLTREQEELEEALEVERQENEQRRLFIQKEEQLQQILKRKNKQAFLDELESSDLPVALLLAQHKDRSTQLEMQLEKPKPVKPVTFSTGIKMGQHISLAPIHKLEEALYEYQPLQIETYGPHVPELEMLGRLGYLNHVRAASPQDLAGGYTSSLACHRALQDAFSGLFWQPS

CDK4 = CDK4 (Homo sapiens, UniProt P11802); conditions: cited from earlier work
CDK4, sequence (P11802 whole entry, species assumed): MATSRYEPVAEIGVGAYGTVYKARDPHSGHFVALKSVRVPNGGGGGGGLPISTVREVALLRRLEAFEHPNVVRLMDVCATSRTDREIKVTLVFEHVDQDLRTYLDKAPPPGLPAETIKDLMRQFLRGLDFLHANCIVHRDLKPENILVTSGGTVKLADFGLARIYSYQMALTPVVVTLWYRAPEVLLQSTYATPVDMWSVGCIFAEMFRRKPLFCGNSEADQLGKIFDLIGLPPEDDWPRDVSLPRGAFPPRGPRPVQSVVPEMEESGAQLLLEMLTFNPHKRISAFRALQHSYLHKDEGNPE
CDK4, sequence (P24385 whole entry partner, species assumed): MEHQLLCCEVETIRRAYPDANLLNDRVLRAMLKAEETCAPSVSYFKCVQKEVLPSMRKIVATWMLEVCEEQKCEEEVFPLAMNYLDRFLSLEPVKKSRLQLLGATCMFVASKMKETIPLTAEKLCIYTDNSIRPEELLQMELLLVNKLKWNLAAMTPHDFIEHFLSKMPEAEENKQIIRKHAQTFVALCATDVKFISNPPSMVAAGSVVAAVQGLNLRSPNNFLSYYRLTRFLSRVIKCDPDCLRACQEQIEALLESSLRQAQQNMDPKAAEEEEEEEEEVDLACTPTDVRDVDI

CDK1 = CDK1 (Homo sapiens, UniProt P06493); conditions: cited from earlier work
CDK1, sequence (P06493 whole entry, species assumed): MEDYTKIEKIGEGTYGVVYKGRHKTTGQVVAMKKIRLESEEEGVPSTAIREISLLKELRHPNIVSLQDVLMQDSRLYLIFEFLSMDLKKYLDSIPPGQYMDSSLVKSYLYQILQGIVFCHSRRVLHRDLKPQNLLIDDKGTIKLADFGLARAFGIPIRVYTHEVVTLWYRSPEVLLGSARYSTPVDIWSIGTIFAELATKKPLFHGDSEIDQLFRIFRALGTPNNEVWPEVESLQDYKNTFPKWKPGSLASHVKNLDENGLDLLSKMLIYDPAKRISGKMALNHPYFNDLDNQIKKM
CDK1, sequence (P14635 whole entry partner, species assumed): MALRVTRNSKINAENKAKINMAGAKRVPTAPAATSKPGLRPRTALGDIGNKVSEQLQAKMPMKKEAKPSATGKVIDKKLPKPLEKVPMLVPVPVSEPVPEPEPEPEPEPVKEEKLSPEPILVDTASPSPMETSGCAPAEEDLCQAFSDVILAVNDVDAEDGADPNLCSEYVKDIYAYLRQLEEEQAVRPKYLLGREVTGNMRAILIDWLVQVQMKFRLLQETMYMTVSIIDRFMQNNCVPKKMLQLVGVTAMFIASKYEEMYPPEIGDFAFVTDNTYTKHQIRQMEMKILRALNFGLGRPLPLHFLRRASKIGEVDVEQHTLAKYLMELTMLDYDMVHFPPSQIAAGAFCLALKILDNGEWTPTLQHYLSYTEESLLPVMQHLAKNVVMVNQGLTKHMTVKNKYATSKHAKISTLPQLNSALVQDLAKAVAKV

[1] = system: ACE2, TMPRSS2, CTSL, and FURIN mRNA in Calu-3 lung epithelial cells; experiment: RT-PCR of basal and CHI3L1 regulated expression in Calu-3 cells transfected with CHI3L1 cDNA, with flavopiridol; type: cell-based, human; conditions: 24 hours
Protocol: After transfection of the cells with empty vector (pcDNA) or full length CHI3L1 cDNA, the Calu-3 cells were incubated with flavopiridol (25 nM) or its vehicle control for 24 hours. Levels of mRNA encoding ACE2 (top left), TMPRSS2 (top right), CTSL (bottom left), and FURIN (bottom right) were assessed via RT-PCR. *p<0.05; **p<0.01 (Student's t-test).
(§1) Total cellular RNA was obtained using TRIzol reagent (ThermoFisher Scientific) followed by RNA extraction using RNeasy Mini Kit (Qiagen, Germantown, Md.) according to the manufacturer's instructions. mRNA was measured and used for real time (RT)-PCR as described previously.^55,56 The primer sequences used in these studies are summarized in Table 1. Ct values of the test genes were normalized to the internal housekeeping gene β-actin.
The next study assessed whether the inhibition of CHI3L1 phosphorylation wound result in similar effects observed with CHI3L1 inhibitors on the levels of mRNA encoding ACE2 and spike activating proteases (SAPs), namely FURIN, TMPRSS2, and CTSL, in Calu-3 cells (described in Example 1).

[2] = system: serine phosphorylation of CHI3L1 in U87 cells; experiment: Co-IP/Immunoblot of CHI3L1 phosphorylation in U87 cells; type: cell-based; conditions: flavopiridol 50 nM unless otherwise indicated, time-dependent and dose-dependent
Protocol: U87 cells that endogenously express all components of chitosome were subjected to Co-IP/Immunoblot assays after Pan-CDK inhibitor flavopiridol treatment. Flavopiridol was used at 50 nM unless otherwise indicated. Hr, hours.

CDK8 = CDK8 (Homo sapiens, UniProt P49336); design: key: + is used to indicate the potency of the inhibitor; ++++ > +++ > ++ > +; + is used to indicate the potency of the inhibitor; ++++ > +++ > ++ > +; + is used to indicate the potency of the inhibitor; ++++ > +++ > ++ > +; + is used to indicate the potency of the inhibitor; ++++ > +++ > ++ > +; ◯ refers to compounds with inhibitory effects on the related isoform, but without specific value; conditions: cited from earlier work
CDK9 = CDK9 (Homo sapiens, UniProt P50750); design: key: + is used to indicate the potency of the inhibitor; ++++ > +++ > ++ > +; + is used to indicate the potency of the inhibitor; ++++ > +++ > ++ > +; + is used to indicate the potency of the inhibitor; ++++ > +++ > ++ > +; + is used to indicate the potency of the inhibitor; ++++ > +++ > ++ > +; ◯ refers to compounds with inhibitory effects on the related isoform, but without specific value; conditions: cited from earlier work
CDK9, sequence (O60563 whole entry, canonical isoform): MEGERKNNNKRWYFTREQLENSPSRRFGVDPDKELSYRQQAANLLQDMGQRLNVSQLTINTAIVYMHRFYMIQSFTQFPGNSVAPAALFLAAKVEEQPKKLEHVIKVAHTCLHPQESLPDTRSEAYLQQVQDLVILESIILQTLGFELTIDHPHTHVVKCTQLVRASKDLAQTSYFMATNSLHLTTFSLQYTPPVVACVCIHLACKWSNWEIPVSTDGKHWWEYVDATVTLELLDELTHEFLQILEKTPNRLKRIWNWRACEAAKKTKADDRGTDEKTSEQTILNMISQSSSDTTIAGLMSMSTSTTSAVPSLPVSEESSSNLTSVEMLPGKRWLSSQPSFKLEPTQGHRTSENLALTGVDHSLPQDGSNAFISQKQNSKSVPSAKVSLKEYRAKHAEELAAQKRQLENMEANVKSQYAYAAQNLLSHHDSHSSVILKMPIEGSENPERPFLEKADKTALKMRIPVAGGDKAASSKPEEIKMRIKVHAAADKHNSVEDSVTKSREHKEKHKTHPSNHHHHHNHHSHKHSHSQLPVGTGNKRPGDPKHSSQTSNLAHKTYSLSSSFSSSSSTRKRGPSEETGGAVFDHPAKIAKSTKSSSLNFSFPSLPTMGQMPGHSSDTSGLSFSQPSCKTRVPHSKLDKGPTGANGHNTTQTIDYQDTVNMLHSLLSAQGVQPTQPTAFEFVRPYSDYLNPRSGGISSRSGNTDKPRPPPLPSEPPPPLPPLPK
CDK9, sequence (P50750 whole entry, canonical isoform): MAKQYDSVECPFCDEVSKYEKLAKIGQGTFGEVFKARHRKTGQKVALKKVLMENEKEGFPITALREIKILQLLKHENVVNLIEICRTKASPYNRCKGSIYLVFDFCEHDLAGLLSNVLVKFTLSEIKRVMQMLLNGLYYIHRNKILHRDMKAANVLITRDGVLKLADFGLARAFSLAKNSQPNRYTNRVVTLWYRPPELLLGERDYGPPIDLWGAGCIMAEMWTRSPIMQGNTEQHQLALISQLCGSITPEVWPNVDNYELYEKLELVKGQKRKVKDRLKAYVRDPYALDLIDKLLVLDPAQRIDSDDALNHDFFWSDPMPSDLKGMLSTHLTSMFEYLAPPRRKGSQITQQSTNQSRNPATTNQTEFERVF

[3] = system: ACE2, TMPRSS2, and CTSL mRNA in normal human small airway epithelial cells (HSAEC); experiment: qRT-PCR of mRNA levels in HSAEC incubated with rhCHI3L1; type: cell-based; conditions: rhCHI3L1 500 ng/mL, 24 hours
Protocol: as §1
In the present study, normal HSAEC were incubated with 0, 100 ng/mL, or 500 ng/mL of rhCHI3L1 for 24 hours at 37° C. The levels of mRNA encoding ACE2, TMPRSS2, and CTSL were assessed via qRT-PCR and expressed in relationship to GAPDH controls.

[4] = system: ACE2, FURIN, TMPRSS2, and CTSL mRNA in Calu-3 lung epithelial cells; experiment: RT-PCR of basal and rhCHI3L1 regulated expression in Calu-3 cells with FRG or KSM; type: cell-based, human; conditions: Calu-3 cells, rhCHI3L1 250 ng/mL, 24 hours
Protocol: Calu-3 cells were incubated with vehicle or rhCHI3L1 for 24 hours in the presence of KSM (250 ng/mL) or its vehicle control (PBS). Levels of mRNA encoding ACE2 (top left), FURIN (top right), TMPRSS2 (bottom left), and CTSL (bottom right) were assessed via RT-PCR. KSM diminished the levels of basal ACE2 expression and potently ameliorated the ability of rhCHI3L1 to stimulate ACE2 mRNA accumulation.
as §1
Calu-3 cells were incubated with vehicle or 250 ng/mL rhCHI3L1 for 24 hours in the presence of 250 ng/mL FRG or its isotype control (isotype) at 37° C. Levels of mRNA encoding ACE2, FURIN, TMPRSS2, and CTSL were assessed via RT-PCR.
Kasugamycin (KSM) is an inhibitor of CHI3L1 and chitinase 1. The present study assessed the effects of KSM on the levels of mRNA encoding ACE2, FURIN, TMPRSS2, and CTSL in Calu-3 cells.

[5] = system: spike protein (S)-containing pseudovirus (D614 and G614 variants); type: cell-based; conditions: Calu-3 cells, rCHI3L1 24 hours before pseudovirus
[6] = system: ACE2, TMPRSS2, and CTSL mRNA in A549 cells; experiment: qRT-PCR of mRNA levels in A549 cells incubated with rhCHI3L1; type: cell-based, human; conditions: 24 hr
Protocol: as §1
In the first study, A549 cells were incubated with rhCHI3L1 from a commercial source (R&D Inc.) and rhCHI3L1 generated at Brown University (Brown). The cells were incubated for 24 hr with stimulation of rhCHI3L1 (500 ng/mL) at 37° C. mRNA was then extracted and the levels of mRNA for ACE2 and CTSL were evaluated by real time qRT-PCR and compared to vehicle controls. Levels were expressed in relationship to GAPDH controls.
In the next study, A549 cells were incubated with 0, 250 ng/mL, or 500 ng/mL of rhCHI3L1 for 24 hr with stimulation of rhCHI3L1 at 37° C. mRNA was then extracted and the levels of mRNA encoding ACE2, TMPRSS2, and CTSL were assessed via qRT-PCR.

[7] = Calu-3 cells, pcDNA or CHI3L1 cDNA, flavopiridol 25 nM

CDK6, sequence (Q00534 whole entry, canonical isoform): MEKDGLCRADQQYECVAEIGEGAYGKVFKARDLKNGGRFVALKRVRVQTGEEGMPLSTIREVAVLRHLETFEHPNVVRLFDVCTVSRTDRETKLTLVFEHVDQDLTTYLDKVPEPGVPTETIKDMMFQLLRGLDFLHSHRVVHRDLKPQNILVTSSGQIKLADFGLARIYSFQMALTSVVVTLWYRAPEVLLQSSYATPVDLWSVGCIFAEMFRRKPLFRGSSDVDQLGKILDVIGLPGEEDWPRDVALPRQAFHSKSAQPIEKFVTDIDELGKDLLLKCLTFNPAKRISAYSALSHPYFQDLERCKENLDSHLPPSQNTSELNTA
CDK3, sequence (Q00526 whole entry): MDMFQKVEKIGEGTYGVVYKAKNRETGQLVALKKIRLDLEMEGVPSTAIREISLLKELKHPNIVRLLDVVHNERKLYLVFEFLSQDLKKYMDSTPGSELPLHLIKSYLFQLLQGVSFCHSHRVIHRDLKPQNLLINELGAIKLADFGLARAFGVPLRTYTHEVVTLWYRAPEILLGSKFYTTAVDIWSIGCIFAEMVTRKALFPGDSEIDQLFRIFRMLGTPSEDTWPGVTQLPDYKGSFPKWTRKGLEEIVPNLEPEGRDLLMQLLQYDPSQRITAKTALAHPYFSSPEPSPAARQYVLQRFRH
CDK3, sequence (P24864 whole entry, further chain): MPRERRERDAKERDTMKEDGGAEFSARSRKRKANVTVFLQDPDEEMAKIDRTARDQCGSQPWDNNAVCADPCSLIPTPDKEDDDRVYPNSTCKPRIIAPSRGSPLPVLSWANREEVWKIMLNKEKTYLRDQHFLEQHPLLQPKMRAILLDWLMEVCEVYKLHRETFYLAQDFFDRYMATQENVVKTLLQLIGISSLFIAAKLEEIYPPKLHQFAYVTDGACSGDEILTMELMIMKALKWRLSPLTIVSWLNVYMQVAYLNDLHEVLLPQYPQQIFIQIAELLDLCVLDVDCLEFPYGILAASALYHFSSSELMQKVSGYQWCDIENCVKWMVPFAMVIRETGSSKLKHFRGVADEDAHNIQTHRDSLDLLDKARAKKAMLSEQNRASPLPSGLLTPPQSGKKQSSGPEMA

**Q.** Which results are given for CN1CC[C@H](c2c(O)cc(O)c3c(=O)cc(-c4ccccc4Cl)oc23)[C@H](O)C1 [Flavopiridol HCl, Flavopiridol Hydrochloride]?
**A.** Inhibitory potency CDK3 (CDK3): +; Inhibitory potency CDK2 (CDK2): +++; Inhibitory potency CDK6 (CDK6): +++; Inhibitory potency CDK7 (CDK7): +; Inhibitory potency CDK4 (CDK4): +++; Inhibitory potency CDK1 (CDK1): +++

**Q.** What does the source list for CN1CC[C@H](c2c(O)cc(O)c3c(=O)cc(-c4ccccc4Cl)oc23)[C@H](O)C1 [Flavopiridol]?
**A.** Inhibitory potency CDK2 (CDK2): +++; ability of CHI3L1 to stimulate ACE2 mRNA accumulation ([1]; Calu-3 cells transfected with full length CHI3L1 cDNA, flavopiridol 25 nM): potently inhibited; levels of basal ACE2 expression ([1]; Calu-3 cells, empty vector (pcDNA), flavopiridol 25 nM vs vehicle): diminished; basal and CHI3L1-stimulated expression of CTSL [1, 7]: potently decreased; basal and CHI3L1-stimulated expression of FURIN [1, 7]: potently decreased; basal and CHI3L1-stimulated expression of TMPRSS2 [1, 7]: potently decreased; Inhibitory potency CDK6 (CDK6): ++; Inhibitory potency CDK7 (CDK7): +; Inhibitory potency CDK4 (CDK4): +++; Inhibitory potency CDK1 (CDK1): +++; serine phosphorylation of CHI3L1 [2]: blocked

**Q.** With CC(C)c1c2cc(-c3ccnc(NC4CCC(NC5CCOCC5)CC4)n3)ccc2nn1C (stereo not drawn) [LY2857785] as the compound, how does the “Inhibitory potency CDK8” value (CDK8) read?
**A.** +++

**Q.** And the “Inhibitory potency CDK9” value (CDK9)?
**A.** +++

**Q.** What about the “Inhibitory potency CDK7” value (CDK7) of the same compound?
**A.** +

**Q.** Which “levels of mRNA encoding ACE2” value [3] does the source give for “rhCHI3L1: recombinant human CHI3L1 from a commercial source (R&D Inc.) or generated at Brown University” here?
**A.** significantly upregulated

**Q.** And the “levels of mRNA encoding CTSL” value [3]?
**A.** significantly upregulated

**Q.** And the “levels of mRNA encoding TMPRSS2” value [3]?
**A.** significantly upregulated

**Q.** And the “levels of mRNA encoding ACE2” value [4]?
**A.** significantly upregulated

**Q.** And the “levels of mRNA encoding CTSL” value [4]?
**A.** significantly upregulated

**Q.** And the “levels of mRNA encoding FURIN” value [4]?
**A.** significantly upregulated

**Q.** What about the “levels of mRNA encoding TMPRSS2” value [4] of the same compound?
**A.** significantly upregulated

**Q.** What about the “cellular integration of S proteins (GFP expression)” value [5] of the same compound?
**A.** stimulated

**Q.** What about the “levels of mRNA encoding ACE2” value ([6]; rhCHI3L1 0, 250 or 500 ng/mL) of the same compound?
**A.** significantly upregulated

**Q.** And the “levels of mRNA encoding CTSL” value ([6]; rhCHI3L1 0, 250 or 500 ng/mL)?
**A.** significantly upregulated

**Q.** What about the “levels of mRNA encoding TMPRSS2” value ([6]; rhCHI3L1 0, 250 or 500 ng/mL) of the same compound?
**A.** significantly upregulated

**Q.** And the “levels of mRNA encoding ACE2” value ([6]; rhCHI3L1 500 ng/mL, vs vehicle)?
**A.** significantly upregulated

**Q.** And the “levels of mRNA encoding cathepsin L (CTSL)” value ([6]; rhCHI3L1 500 ng/mL, vs vehicle)?
**A.** significantly upregulated
